According to patent publication US11186592B2, “Thiazolopyridine derivatives as adenosine receptor antagonists” (MERCK PATENT GMBH, priority 2017, dated 2021):
pIC50: −log10 of the molar value.

What was measured:
Type in all cases: cell-based
human A2A receptor = target: T1, human A2A receptor (Homo sapiens, UniProt P29274); assay: cAMP (HTRF) functional assay, recombinant HEK293 cells expressing human A2A receptor, agonist NECA
T1 construct: expressed in transfected cells; host or cells: HEK293
T1 sequence (P29274 whole entry): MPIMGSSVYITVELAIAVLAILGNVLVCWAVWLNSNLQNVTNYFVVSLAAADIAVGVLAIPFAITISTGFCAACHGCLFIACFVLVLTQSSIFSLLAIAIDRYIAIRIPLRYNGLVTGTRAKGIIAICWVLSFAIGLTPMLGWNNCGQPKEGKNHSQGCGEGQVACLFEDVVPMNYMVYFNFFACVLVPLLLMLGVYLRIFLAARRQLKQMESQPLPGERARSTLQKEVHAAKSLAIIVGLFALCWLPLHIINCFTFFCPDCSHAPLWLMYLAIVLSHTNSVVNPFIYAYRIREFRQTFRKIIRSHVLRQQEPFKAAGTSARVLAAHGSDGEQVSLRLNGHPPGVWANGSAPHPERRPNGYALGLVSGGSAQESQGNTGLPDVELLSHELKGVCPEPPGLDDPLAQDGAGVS
Method: (§1) The functional activities of human A2A, A2B, A1 and A3 receptors were determined by quantification of cAMP, being the second messenger for adenosine receptors.
(§2) Cells were seeded into 384-well plates, forskolin, test compounds and agonists (CPA for A1- and IB-MECA for A3-receptor) were added. After 30 min incubation, HTRF reagents (cAMP dynamic 2, Cis Bio) were added and the cellular cAMP levels were determined using the ENVISION (Perkin Elmer) plate reader. Obtained raw data were normalized against the inhibitor control and the neural control (DMSO) and the normalized data were fitted using GeneData software.

human A2B receptor = target: T2, human A2B receptor (Homo sapiens, UniProt P29275); assay: cAMP (HTRF) functional assay, recombinant HEK293 cells expressing human A2B receptor, agonist NECA
T2 construct: expressed in transfected cells; host or cells: HEK293
T2 sequence (P29275 1-332): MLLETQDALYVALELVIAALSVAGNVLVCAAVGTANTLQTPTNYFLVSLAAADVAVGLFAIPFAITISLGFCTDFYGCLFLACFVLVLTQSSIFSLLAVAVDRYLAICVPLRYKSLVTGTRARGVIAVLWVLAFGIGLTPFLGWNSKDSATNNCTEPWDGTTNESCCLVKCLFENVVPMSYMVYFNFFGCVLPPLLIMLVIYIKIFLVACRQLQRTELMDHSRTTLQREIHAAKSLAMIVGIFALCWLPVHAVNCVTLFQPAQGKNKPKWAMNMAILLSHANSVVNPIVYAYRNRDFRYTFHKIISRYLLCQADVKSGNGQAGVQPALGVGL
Method: as §1, §2

human A1 receptor = target: T3, human A1 receptor (Homo sapiens, UniProt P30542); assay: cAMP (HTRF) functional assay, recombinant CHO cells expressing human A1 receptor, forskolin + agonist CPA
T3 construct: expressed in transfected cells; host or cells: CHO
T3 sequence (P30542 1-326): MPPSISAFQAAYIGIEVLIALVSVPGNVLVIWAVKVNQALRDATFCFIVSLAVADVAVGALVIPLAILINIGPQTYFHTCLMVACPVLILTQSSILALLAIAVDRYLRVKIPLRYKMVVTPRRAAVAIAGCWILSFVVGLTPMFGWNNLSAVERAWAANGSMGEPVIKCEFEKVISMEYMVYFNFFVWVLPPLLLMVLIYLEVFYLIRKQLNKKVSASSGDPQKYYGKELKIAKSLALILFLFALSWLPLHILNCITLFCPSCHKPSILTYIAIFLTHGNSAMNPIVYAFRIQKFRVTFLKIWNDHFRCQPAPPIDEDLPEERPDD
Method: as §1
For human A1 and A3 receptors, recombinant CHO cells, expressing either A1 or A3-receptor, were used. As both receptors couple to Gi proteins, the assay protocol was adapted:
as §2

Compound | pIC50 (human A2A receptor) | pIC50 (human A2B receptor) | pIC50 (human A1 receptor)
COc1ncc(-c2cnn(C)c2)c2sc(NC(=O)c3ccc(CN(C)C)cc3)nc12 [compound 22, 4-Dimethylaminomethyl-N-[4-methoxy-7-(1-methyl-1H-pyrazol-4-yl)-thiazolo[4,5-c]pyridin-2-yl]-benzamide] | > 8.00 | > 7.00 | < 6.00
COc1ncc(C2CCOCC2)c2sc(NC(=O)c3ccc(CN(C)C)cc3)nc12 [compound 27, 4-Dimethylaminomethyl-N-[4-methoxy-7-(tetrahydro-pyran-4-yl)-thiazolo[4,5-c]pyridin-2-yl]-benzamide] | > 8.00 | > 7.00 | < 6.00
COc1ncc(N2CCOCC2)c2sc(NC(=O)c3ccc(Cn4ccnc4)cc3)nc12 [compound 33, 4-Imidazol-1-ylmethyl-N-(4-methoxy-7-morpholin-4-yl-thiazolo[4,5-c]pyridin-2-yl)-benzamide] | > 8.00 | > 7.00 | < 6.00
COc1ncc(N2CCOCC2)c2sc(NC(=O)N3CCC4(CCCOC4)C3)nc12 (stereo not shown) [compound 34, 7-Oxa-2-aza-spiro[4.5]decane-2-carboxylic acid (4-methoxy-7-morpholin-4-yl-thiazolo[4,5-c]pyridin-2-yl)-amide] | > 8.00 | > 7.00 | 
COc1ncc(-c2ccccc2)c2sc(NC(=O)c3ccc(CN4CCCC4=O)cc3)nc12 [compound 62, N-(4-Methoxy-7-phenyl-thiazolo[4,5-c]pyridin-2-yl)-4-(2-oxo-pyrrolidin-1-ylmethyl)-benzamide] | > 8.00 | > 7.00 | > 6.00
COc1ncc(-c2cnn(C)c2)c2sc(NC(=O)N3CCC4(CCCOC4)C3)nc12 (stereo not shown) [compound 80, 7-Oxa-2-aza-spiro[4.5]decane-2-carboxylic acid [4-methoxy-7-(1-methyl-1H-pyrazol-4-yl)-thiazolo[4,5-c]pyridin-2-yl]-amide] | > 8.00 | > 7.00 | < 6.00
COc1ncc(-c2cnn(C)c2)c2sc(NC(=O)N3CCC4(CCOCC4)C3)nc12 [compound 81, 8-Oxa-2-aza-spiro[4.5]decane-2-carboxylic acid [4-methoxy-7-(1-methyl-1H-pyrazol-4-yl)-thiazolo[4,5-c]pyridin-2-yl]-amide] | > 8.00 | > 7.00 | < 6.00
COc1ncc(C2CCOCC2)c2sc(NC(=O)c3cnc(C)o3)nc12 [compound 147, 2-Methyl-oxazole-5-carboxylic acid [4-methoxy-7-(tetrahydro-pyran-4-yl)-thiazolo[4,5-c]pyridin-2-yl]-amide] | > 8.00 | > 7.00 | < 6.00
COc1ncc(N2CCOCC2)c2sc(NC(=O)N3CC[C@@]4(CCCOC4)C3)nc12 [compound 168, (S)-7-Oxa-2-aza-spiro[4.5]decane-2-carboxylic acid (4-methoxy-7-morpholin-4-yl-thiazolo[4,5-c]pyridin-2-yl)-amide] | > 8.00 | > 7.00 | 
COc1ncc(N2CCOCC2)c2sc(NC(=O)c3ccc(CN4CCCC4=O)cc3)nc12 [compound 170, N-(4-Methoxy-7-morpholin-4-yl-thiazolo[4,5-c]pyridin-2-yl)-4-(2-oxo-pyrrolidin-1-ylmethyl)-benzamide] | > 8.00 | > 7.00 | 
COc1ncc(-c2cnn(C)c2)c2sc(NC(=O)N3CC[C@@]4(CCOC4)C3)nc12 [compound 172, (R)-2-Oxa-7-aza-spiro[4.4]nonane-7-carboxylic acid [4-methoxy-7-(1-methyl-1H-pyrazol-4-yl)-thiazolo[4,5-c]pyridin-2-yl]-amide] | > 8.00 | > 7.00 | < 6.00
COc1ncc(-c2cnn(C)c2)c2sc(NC(=O)N3CC[C@@]4(CCCOC4)C3)nc12 [compound 176, (S)-7-Oxa-2-aza-spiro[4.5]decane-2-carboxylic acid [4-methoxy-7-(1-methyl-1H-pyrazol-4-yl)-thiazolo[4,5-c]pyridin-2-yl]-amide] | > 8.00 | > 7.00 | < 6.00
COc1ncc(-c2cnn(C)c2)c2sc(NC(=O)N3CC[C@]4(CCCOC4)C3)nc12 [compound 177, (R)-7-Oxa-2-aza-spiro[4.5]decane-2-carboxylic acid [4-methoxy-7-(1-methyl-1H-pyrazol-4-yl)-thiazolo[4,5-c]pyridin-2-yl]-amide] | > 8.00 | > 7.00 | < 6.00
COc1ncc(C2CCOCC2)c2sc(NC(=O)c3ccc(CN4CCCC4=O)cc3)nc12 [compound 180, N-[4-Methoxy-7-(tetrahydro-pyran-4-yl)-thiazolo[4,5-c]pyridin-2-yl]-4-(2-oxo-pyrrolidin-1-ylmethyl)-benzamide] | > 8.00 | > 7.00 | > 6.00
COc1ncc(C2CCOCC2)c2sc(NC(=O)c3cnc(C)s3)nc12 [compound 181, 2-Methyl-thiazole-5-carboxylic acid [4-methoxy-7-(tetrahydro-pyran-4-yl)-thiazolo[4,5-c]pyridin-2-yl]-amide] | > 8.00 | > 7.00 | > 6.00
COc1ncc(-c2ccc(F)cc2)c2sc(NC(=O)N3CCC4(CCOCC4)C3)nc12 [compound 193, 8-Oxa-2-aza-spiro[4.5]decane-2-carboxylic acid [7-(4-fluoro-phenyl)-4-methoxy-thiazolo[4,5-c]pyridin-2-yl]-amide] | > 8.00 | > 7.00 | < 6.00
COc1ncc(-c2ccccc2)c2sc(NC(=O)N3CCC4(CCCC4N)CC3)nc12 (stereo not shown) [compound 201, 1-amino-N-{4-methoxy-7-phenyl-[1,3]thiazolo[4,5-c]pyridin-2-yl}-8-azaspiro[4.5]decane-8-carboxamide] | > 8.00 | > 7.00 | 
COc1ncc(-c2ccncc2)c2sc(NC(=O)N3CCC4(CCOCC4)C3)nc12 [compound 212, 8-Oxa-2-aza-spiro[4.5]decane-2-carboxylic acid (4-methoxy-7-pyridin-4-yl-thiazolo[4,5-c]pyridin-2-yl)-amide] | > 8.00 | > 7.00 | < 6.00
COc1ncc(N2CCOCC2)c2sc(NC(=O)c3ccc(N4C(=O)CCC4=O)cc3)nc12 [compound 214, 4-(2,5-Dioxo-pyrrolidin-1-yl)-N-(4-methoxy-7-morpholin-4-yl-thiazolo[4,5-c]pyridin-2-yl)-benzamide] | > 8.00 | > 7.00 | < 6.00
COc1ncc(-c2ccncc2)c2sc(NC(=O)c3ccc(C(=O)N(C)C)cc3)nc12 [compound 219, N-(4-Methoxy-7-pyridin-4-yl-thiazolo[4,5-c]pyridin-2-yl)-N′,N′-dimethyl-terephthalamide] | > 8.00 | > 7.00 | < 6.00
COc1nc(F)c(-c2ccccc2)c2sc(NC(=O)N3CCC4(CCOCC4)C3)nc12 [compound 229, 8-Oxa-2-aza-spiro[4.5]decane-2-carboxylic acid (6-fluoro-4-methoxy-7-phenyl-thiazolo[4,5-c]pyridin-2-yl)-amide] | > 8.00 | > 8.00 | 
COc1ncc(C2CCOCC2)c2sc(NC(=O)N3CCC4(CCOCC4)C3)nc12 [compound 232, 8-Oxa-2-aza-spiro[4.5]decane-2-carboxylic acid [4-methoxy-7-(tetrahydro-pyran-4-yl)-thiazolo[4,5-c]pyridin-2-yl]-amide] | > 8.00 | > 7.00 | < 6.00
